Reference: patent US9145391B2, “Bipyridylaminopyridines as Syk inhibitors” (Merck Sharp & Dohme Corp., priority 2011, dated 2015)

Each molecule was assayed against recombinant human GST-Syk (Homo sapiens (Human), UniProt P43405) (assay: Homogeneous Time-Resolved Fluorescence (HTRF) assay for the recombinant human Syk enzyme). Settings: recombinant human GST-Syk 5 pM, ATP 25 μM, read-out: rhSyk IC50.
Type: biochemical
Procedure: Syk inhibition may be determined using the following assay protocol: Homogeneous Time-Resolved Fluorescence (HTRF) Assay for the Recombinant Human Syk Enzyme: A recombinant GST-hSyk fusion protein was used to measure potency of compounds to inhibit human Syk activity. […] To initiate the reaction the biotinylated substrate peptide (250 nM final concentration) that contains the phosphorylation site for Syk was added with magnesium (5 mM final concentration) and ATP (25 μM final concentration). […] Final volume of the quenching solution was 10 μL.
Work on Cc1cc(Nc2cc(C(F)(F)F)ccn2)nc(-c2ccc(NC3CCN(C(=O)c4cccc5[nH]ccc45)CC3)nc2)c1 [Example 4-33] yielded an IC50 of 7 nM.
For Cc1cc(Nc2cc(C(F)(F)F)ccn2)nc(-c2ccc(NC3CCN(C(=O)c4cccc(C#N)c4)CC3)nc2)c1 [Example 4-85], the IC50 was 7 nM.
COC(=O)C1CCC(O)(c2ccc(-c3cc(C)cc(Nc4cc(C(F)(F)F)ccn4)n3)cn2)CC1(C)C (single isomer, unassigned) [Example 1-7] was tested, and the IC50 was 245 nM.
For Cc1cc(Nc2cc(C(F)(F)F)ccn2)nc(-c2ccc(NC3CCNCC3)nc2)c1 [Example 5-2], the IC50 was 6 nM.
Molecule Cc1cc(Nc2cc(C(F)(F)F)ccn2)nc(-c2ccc(NC3CCN(C(=O)c4n[nH]c5ccccc45)CC3)nc2)c1 [Example 4-86] has an IC50 of 7 nM.
COC(=O)C1CCC(O)(c2ccc(-c3cc(C)cc(Nc4cc(C(F)(F)F)ccn4)n3)cn2)CC1(C)C (single isomer, unassigned) [Example 1-9] was tested, and the IC50 was 100 nM.
Cc1cc(Nc2cc(C(F)(F)F)ccn2)nc(-c2ccc(NC3CCN(C(=O)c4ccc5[nH]c(C)c(C)c5c4)CC3)nc2)c1 [Example 4-103] was tested, and the IC50 was 11 nM.
Cc1cc(Nc2cc(C(F)(F)F)ccn2)nc(-c2ccc(N3CCCC(NC(N)=O)C3)nc2)c1 (stereo not shown) [Example 7-1] gave an IC50 of 5 nM.
For Cc1cc(Nc2cc(C(F)(F)F)ccn2)nc(-c2ccc(N3CC(C4CCC(C(=O)O)CC4)C3)nc2)c1 (stereo not shown) [Example 2-22], the IC50 was 3 nM.
Work on Cc1cc(Nc2cc(C(F)(F)F)ccn2)nc(-c2ccc(NC3CCN(C(=O)c4ccccc4Cl)CC3)nc2)c1 [Example 4-71] yielded an IC50 of 21 nM.
Work on Cc1cc(Nc2cc(C(F)(F)F)ccn2)nc(-c2ccc(NC3CCN(C(=O)c4ccccc4N4CCN(C)CC4)CC3)nc2)c1 [Example 4-20] yielded an IC50 of 4 nM.
For Cc1cc(Nc2cc(C(F)(F)F)ccn2)nc(-c2ccc(NC3CCN(C(=O)Cc4ccccn4)CC3)nc2)c1 [Example 4-68], the IC50 was 2 nM.
Cc1cc(Nc2cc(C(F)(F)F)ccn2)nc(-c2ccc(N3CCC(C4CCCCC4C(=O)O)CC3)nc2)c1 (stereo not shown) [Example 3-1] gave an IC50 of 3 nM.
For Cc1cc(Nc2cc(C(F)F)ccn2)nc(-c2ccc(C(C)(O)[C@H]3CC[C@H](C(=O)OC(C)OC(=O)OC(C)C)CC3)nc2)c1 (single isomer, unassigned) [Example 20-8, 1-{[(propan-2-yloxy)carbonyl]oxy}ethyl trans-4-[(1R or 1S)-1-(6-{[4-(difluoromethyl)pyridin-2-yl]amino}-4-methyl-2,3′-bipyridin-6′-yl)-1-hydroxyethyl] cyclohexanecarboxylate], the IC50 was 50 nM.
Cc1cc(Nc2cc(C(F)F)ccn2)nc(-c2ccc(C(C)(O)[C@H]3CC[C@H](C(=O)OC4CCOCC4)CC3)nc2)c1 (single isomer, unassigned) [Example 19-13, tetrahydro-2H-pyran-4-yl trans-4-[(1R or 1S)-1-(6-{[4-(difluoromethyl)pyridin-2-yl]amino}-4-methyl-2,3′-bipyridin-6′-yl)-1-hydroxyethyl] cyclohexanecarboxylate] was tested, and the IC50 was 8.7 nM.
CCCOC(=O)[C@H]1CC[C@H](C(C)(O)c2ccc(-c3cc(C)cc(Nc4cc(C(F)F)ccn4)n3)cn2)CC1 (single isomer, unassigned) [Example 19-2, propyl trans-4-[(1R or 1S)-1-(6-{[4-(difluoromethyl)pyridin-2-yl]amino}-4-methyl-2,3′-bipyridin-6′-yl)-1-hydroxyethyl] cyclohexanecarboxylate] was tested, and the IC50 was 32 nM.
Cc1cc(Nc2cc(C(F)(F)F)ccn2)nc(-c2ccc(NC3CCN(C(=O)COc4ccccc4)CC3)nc2)c1 [Example 4-80] showed an IC50 of 28 nM.
Cc1cc(Nc2cc(C(F)F)ccn2)nc(-c2ccc(C(C)(O)[C@H]3CC[C@H](C(=O)OC(C)OC(=O)OC4CCCCC4)CC3)nc2)c1 (single isomer, unassigned) [Example 20-4, 1-{[(cyclohexyloxy)carbonyl]oxy}ethyl trans-4-[(1R or 1S)-1-(6-{[4-(difluoromethyl)pyridin-2-yl]amino}-4-methyl-2,3′-bipyridin-6′-yl)-1-hydroxyethyl] cyclohexanecarboxylate] was tested, and the IC50 was 510 nM.
For CCC(O)(c1ccc(-c2cc(C)cc(Nc3cc(C(F)(F)F)ccn3)n2)cn1)C1CCC(C(=O)O)CC1 (stereo not shown) [Example 1-30], the IC50 was under 0.5 nM.
Cc1cc(Nc2cc(C(F)(F)F)ccn2)nc(-c2ccc(C3(O)CCN(C(=O)c4ccc5cccnc5c4)CC3)nc2)c1 [Example 9-1] was tested, and the IC50 was 30 nM.
Cc1cc(Nc2cc(C(F)(F)F)ccn2)nc(-c2ccc(NC3CCN(C(=O)c4ccnc5ccccc45)CC3)nc2)c1 [Example 4-66] was tested, and the IC50 was 24 nM.
In the case of Cc1cc(Nc2cc(C(F)(F)F)ccn2)nc(-c2ccc(NC3CCN(C(=O)c4ccc(C(N)=O)cc4)CC3)nc2)c1 [Example 4-23], the IC50 is reported as 3 nM.
Cc1cc(Nc2cc(C(F)F)ccn2)nc(-c2ccc(C(C)(O)C3CCC(C(=O)O)C(C)C3)nc2)c1 (stereo not shown) [Example 1-35] showed an IC50 of under 0.5 nM.
Molecule Cc1cc(Nc2cc(C(F)F)ccn2)nc(-c2ccc(C(C)(O)[C@H]3CC[C@H](C(=O)OCCN(C)C)CC3)nc2)c1 (single isomer, unassigned) [Example 19-20, 2-(dimethylamino)ethyl trans-4-[(1R or 1S)-1-(6-{[4-difluoromethyl)pyridin-2-yl]amino}-4-methyl-2,3′-bipyridin-6′-yl)-1-hydroxyethyl] cyclohexanecarboxylate] has an IC50 of 2.3 nM.
Molecule Cc1cc(Nc2cc(C(F)(F)F)ccn2)nc(-c2ccc(N3CCN(C(=O)N4CCCC(C(=O)O)C4)CC3)nc2)c1 (stereo not shown) [Example 2-20] has an IC50 of 2 nM.
With CCOC(=O)OC(C)OC(=O)[C@H]1CC[C@H](C(C)(O)c2ccc(-c3cc(C)cc(Nc4cc(C(F)F)ccn4)n3)cn2)CC1 (single isomer, unassigned) [Example 20-2, 1-[(ethoxycarbonyl)oxy]ethyl trans-4-[(1R or 1S)-1-(6-{[4-(difluoromethyl)pyridin-2-yl]amino}-4-methyl-2,3′-bipyridin-6′-yl)-1-hydroxyethyl] cyclohexanecarboxylate] the IC50 was 69 nM.
Cc1cc(Nc2cc(C(F)(F)F)ccn2)nc(-c2ccc(NC3CCN(C(=O)Cc4ccc(Oc5ccccc5)cc4)CC3)nc2)c1 [Example 4-57] was tested, and the IC50 was 175 nM.
Molecule CC(=O)NC1CCCN(c2ccc(-c3cc(C)cc(Nc4cc(C(F)(F)F)ccn4)n3)cn2)C1 (stereo not shown) [Example 4-18] has an IC50 of 14 nM.
Molecule Cc1cc(Nc2cc(C(F)(F)F)ccn2)nc(-c2ccc(NC3CCN(C(=O)c4ccc5cccnc5n4)CC3)nc2)c1 [Example 4-44] has an IC50 of under 0.5 nM.
With CCCCCOC(=O)[C@H]1CC[C@H](C(C)(O)c2ccc(-c3cc(C)cc(Nc4cc(C(F)F)ccn4)n3)cn2)CC1 (single isomer, unassigned) [Example 19-7, pentyl trans-4-[(1R or 1S)-1-(6-{[4-(difluoromethyl)pyridin-2-yl]amino}-4-methyl-2,3′-bipyridin-6′-yl)-1-hydroxyethyl] cyclohexanecarboxylate] the IC50 was 100 nM.
Cc1cc(Nc2cc(C(F)(F)F)ccn2)nc(-c2ccc(NC3CCC(C(=O)O)C(C)(C)C3)nc2)c1 (single isomer, unassigned) [Example 3-5] gave an IC50 of 2 nM.
Cc1cc(Nc2cc(C(F)(F)F)ccn2)nc(-c2ccc(NC3CCN(C(=O)c4cccc(-c5cn[nH]c5)c4)CC3)nc2)c1 [Example 4-9] was tested, and the IC50 was 12 nM.
In the case of Cc1cc(Nc2cc(C(F)F)ccn2)nc(-c2ccc(C(C)(C)O)nc2)c1 [Example 1-14], the IC50 is reported as 8 nM.
Cc1cc(Nc2cc(C(F)(F)F)ccn2)nc(-c2ccc(NC3CCN(C(=O)Cc4cccc(C(F)(F)F)c4)CC3)nc2)c1 [Example 4-96] showed an IC50 of 103 nM.
